Experimental data from US10716313B2, “Ampicillin resistant texturizing lactic acid bacteria strains” (Chr. Hansen A/S, priority 2012, dated 2020).

System: Lactobacillus delbrueckii subsp. bulgaricus
Experiment: Ampicillin growth reduction (OD600) in MRS broth
Format: cell-based
Settings: at least 20 hours at 37° C., stated as typical
Procedure: In order to isolate ampicillin resistant mutants of the Lactobacillus delbrueckii subsp. bulgaricus strain CHCC13995, cells derived from the growth of a single colony were inoculated anaerobically into 10 ml MRS broth containing one of the following amounts of ampicillin, 0 ng/ml, 100 ng/ml, 200 ng/ml, 300 ng/ml, 400 ng/ml, 500 ng/ml, 600 ng/ml or 700 ng/ml, and grown for at least 20 hours at 37° C. After the 20 hours of growth OD600 is measured for all samples. Typically the concentration of ampicillin that reduces the OD600 measured anaerobic growth of Lactobacillus delbrueckii subsp. bulgaricus with at least 20% as compared to the growth in MRS medium without ampicillin (i.e. with 0 ng/ml ampicillin) is higher than 300 ng/ml. Cultures where the concentration of ampicillin was 500 ng/ml were diluted and plated on MRS agar plates with no ampicillin added and then incubated anaerobically for at least 20 hours at 37° C. Colonies were then picked and screened for anaerobic growth at 37° C. in microtiter plates in the presence of 500 ng/ml ampicillin. Typically, 25% of the resulting colonies were identified as fast growers in the presence of ampicillin. These were chosen for further study. The selected ampicillin resistant mutants were further purified and tested for their ability to grow in milk. […]

Question: Which “concentration of ampicillin that reduces the OD600 measured anaerobic growth with at least 20% as compared to the growth in MRS medium without ampicillin” value does the source give for CC1(C)S[C@@H]2[C@H](NC(=O)[C@H](N)c3ccccc3)C(=O)N2[C@H]1C(=O)O [ampicillin] here?
Answer: higher than 300 ng/ml
